Data published in patent US20210100905A1, “APPLICATION OF COMPOUND OR TRADITIONAL CHINESE MEDICINE EXTRACT IN PREPARATION OF NUCLEIC ACID DELIVERY AGENT, AND RELATED PRODUCTS” (INSTITUTE OF BASIC MEDICAL SCIENCES CHINESE ACADEMY OF …, priority 2018, published 2021).

What was measured:
[1] = In vivo intragastric delivery of small RNA with lipid No. 41, samples after 6 hours; parameters: species or system mice; settings: each small RNA 1 nmol/animal
Description: [Experimental method] 6-8 weeks old mice, 22-24 g, were raised in SPF room of the Animal Center of the Institute of Basic Medical Sciences of Chinese Academy of Medical Sciences. The mice were fasted for 12 hours before intragastric administration. The mice were randomly divided into 3 groups: (1) control group, 400 μl DEPC-treated water, intragastric administration; (2) free uptake group, small RNA (PGY-sRNA-26, PGY-sRNA-32 and PGY-sRNA-23), each small RNA 1 nmol/animal, dissolved in 400 μl DEPC-treated water, intragastric administration; (3) lipid No. 41 group: a mixture of small RNA (PGY-sRNA-26 and PGY-sRNA-32) and lipid No. 41 prepared by heating method was intragastrically administered, each small RNA 1 nmol/animal, lipid No. 41 10 μl/animal, dissolved in 400 μl DEPC-treated water. All tissue and organ samples were collected after 6 hours of intragastric administration. All small RNAs were single-stranded RNA modified by 3p- terminal 2-O-methylation.

A549 cells = test: Western blot of knockdown protein after lipid-mediated siRNA delivery; type: cell-based, human; settings: FIG. 82; reverse evaporation method; LAMP2, XPN2, Ssu72, CPSF4 or β-actin siRNA 400 nM
Description: (§1) 3.3 Western blot detection of protein expression levels 3.3.1 MRC-5 cell (pulmonary embryonic fibroblast), and A549 cell (human lung adenocarcinoma cell) were cultured to logarithmic growth phase, and then plated into 12-well plates at a cell density of 6×10^5/1 mL medium/well; MRC-5 cells were cultured in Eagle's MEM medium (MEM, Gibco); A549 cells were cultured in Ham's F-12 medium (HyClone); followed by incubation overnight at 37° C., and the follow-up experiments were performed after the cells were attached to the walls.
(§2) 4) Lipid nucleic acid mixture: the mixture of lipid and nucleic acid prepared from the step 2 were added into cells and mixed, and the final concentration of nucleic acid was 400 nM.
(§3) 3.3.3 After 24 hours of treatment, the cells were stimulated with the stimulant (1 μg/mL poly (I:C) (P1530, Sigma-Aldrich) as double-stranded RNA viruses mimetics) or 3 ng/mL transforming growth factor TGF(31 (Pepro Tech)). […]

[2] = Luciferase reporter with 3′UTR of target gene after lipid-mediated small RNA delivery; type: cell-based; settings: FIG. 13; mutated 3′UTR
MRC-5 cells = test: Western blot of fibronectin/α-SMA after lipid-mediated delivery of anti-fibrotic HJT-sRNA, TGF-β1 stimulation; type: cell-based; settings: FIG. 102; nucleic acid 400 nM; TGF-β1 3 ng/mL, 72 hours
Description: as §1, §2, §3

CCCCCCCCCCCCCCCCCCC[C@@H](O)[C@@H](N)CO [No. 41, Sphinganine (d22:0)]
entry of small RNA into the blood ([1]; FIG. 108, lipid 10 μl/animal): could promote the entry of small RNA into the blood, protecting it from degradation in the blood
entry of small RNA into the stomach cells ([1]; FIG. 109, lipid 10 μl/animal): could promote the entry of small RNA into the stomach cells, protecting it from degradation in the stomach
entry of small RNA into small intestinal cells ([1]; FIG. 110, lipid 10 μl/animal): could promote the entry of small RNA into small intestinal cells, protecting it from degradation in the small intestine
entry of small RNA into the liver ([1]; FIG. 111, lipid 10 μl/animal): could promote the entry of small RNA into the liver, protecting it from degradation in the liver
protein knockdown effect of delivered siRNA vs RNAiMAX (Western blot) (A549 cells): significantly higher than the inhibitory effect of HJT-sRNA-m7 mediated by RNAiMAX

CCCCC/C=C\C/C=C\CCCCCCCC(=O)O[C@H](COC(=O)CCCCCCCCCCCCCCCCC)COP(=O)([O-])OCC[N+](C)(C)C [No. 11, trimethyl(2-{[(2R)-2-[(9Z, 12Z)-octadeca-9,12-dienoyloxy]-3-(octadecanoyloxy)propyl-phosphonato]oxy}ethyl) azanium]
action on Luciferase with mutated 3′UTR [2]: did not act on the mutated 3′UTR of their target genes

CCCCC/C=C\C/C=C\CCCCCCCC(=O)O[C@H](COC(=O)CCCCCCCCCCCCCCC)COP(=O)([O-])OCC[N+](C)(C)C [No. 12, (2-{[(2R)-3-(hexadecanoyloxy)-2-[(9Z,12Z)-octadeca-9,12-dienoyloxy]propylphosphonato]oxy}ethyl) trimethylazanium]
action on Luciferase with mutated 3′UTR [2]: did not act on the mutated 3′UTR of their target genes

CCCCCCCC/C=C\CCCCCCCCCCCC(=O)O[C@H](COC(=O)CCCCCCCCCCCCCCC)COP(=O)(O)OCCN [No. 40, (2-aminoethoxy) [(2R)-2-[(13Z)-docos-13-enoyloxy]-3-(hexadecanoyloxy)propoxy] phosphinic acid]
fibronectin protein expression after delivery of double-stranded HJT-sRNA-m7 (Western blot) (MRC-5 cells): mediated anti-fibrotic double-stranded RNA HJT-sRNA-m7 entry into MRC-5 cells to down-regulate fibronectin protein expression
